{"source": "patent US11014891B2", "about": "“Reduction-triggered antibacterial sideromycins” (priority 2013, dated 2021)", "test_in_all_cases": "agar diffusion antibacterial susceptibility assay", "key": {"S. aureus SG 511": {"tested_on": "S. aureus SG 511", "type": "cell-based, Staphylococcus aureus", "conditions": "ciprofloxacin in H2O, concentration per footnote mark b", "text": "(§1) Representative Gram-positive strains included Bacillus subtilis, Staphylococcus aureus and Micrococcus luteus. The Gram-negative strains studied included Pseudomonas aeruginosa (a wild type K799/wt and a penetration mutant strain K799/61), Escherichia coli, and Acinetobacter baumannii."}, "B. subtilis ATCC 6633": {"tested_on": "B. subtilis ATCC 6633", "type": "cell-based, Bacillus subtilis", "conditions": "ciprofloxacin in H2O, concentration per footnote mark c", "text": "as §1"}, "M. luteus ATCC 10240": {"tested_on": "M. luteus ATCC 10240", "type": "cell-based, Micrococcus luteus", "conditions": "ciprofloxacin in H2O, concentration per footnote mark b", "text": "as §1"}, "E. coli X580": {"tested_on": "E. coli X580", "type": "cell-based, Escherichia coli", "conditions": "ciprofloxacin in H2O, concentration per footnote mark d", "text": "as §1"}, "A. baumannii ATCC 17961": {"tested_on": "A. baumannii ATCC 17961", "type": "cell-based, Acinetobacter baumannii", "conditions": "ciprofloxacin in H2O, concentration per footnote mark b; 100 μM 2,2′-bipyridine", "text": "The siderophore-ciprofloxacin conjugates 13 and 23 were first evaluated for their ability to inhibit the growth of bacteria using the agar well diffusion test. Representative Gram-positive strains included Bacillus subtilis, Staphylococcus aureus and Micrococcus luteus. The Gram-negative strains studied included Pseudomonas aeruginosa (a wild type K799/wt and a penetration mutant strain K799/61), Escherichia coli, and Acinetobacter baumannii."}}}
{"compound": "O=C(O)c1cn(C2CC2)c2cc(N3CCNCC3)c(F)cc2c1=O", "note": "[Ciprofloxacin, ciprofloxacin]", "values": [{"measurement": "Diameter of growth inhibition zones", "setting": "S. aureus SG 511", "value": "28^b mm"}, {"measurement": "Diameter of growth inhibition zones", "setting": "B. subtilis ATCC 6633", "value": "28^c mm"}, {"measurement": "Diameter of growth inhibition zones", "setting": "M. luteus ATCC 10240", "value": 12, "unit": "P^b"}, {"measurement": "Diameter of growth inhibition zones", "setting": "E. coli X580", "value": "31^d mm"}, {"measurement": "Diameter of growth inhibition zones", "setting": "A. baumannii ATCC 17961", "value": 15, "unit": "p^b"}]}
